Laboratory results as given in ChEMBL document CHEMBL1201862, “PubChem BioAssay data set” (2004).
Active and inactive are the calls of the source.

How the values were obtained:
Cytochrome P450 2C9 = Cytochrome P450 2C9 (Homo sapiens, UniProt P11712)
Cytochrome P450 2D6 = Cytochrome P450 2D6 (Homo sapiens, UniProt P10635);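 further: CYP2D6 member of a cytochrome P450 panel assay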
Insulin-degrading enzyme [1] = target: T1, Insulin-degrading enzyme (Homo sapiens, UniProt P14735); experiment: activators of recombinant IDE enzyme, dose response, counter-screen for IDE activator project, biochemical, fluorescence polarization (AID 588681)
T1 sequence (P14735 whole entry): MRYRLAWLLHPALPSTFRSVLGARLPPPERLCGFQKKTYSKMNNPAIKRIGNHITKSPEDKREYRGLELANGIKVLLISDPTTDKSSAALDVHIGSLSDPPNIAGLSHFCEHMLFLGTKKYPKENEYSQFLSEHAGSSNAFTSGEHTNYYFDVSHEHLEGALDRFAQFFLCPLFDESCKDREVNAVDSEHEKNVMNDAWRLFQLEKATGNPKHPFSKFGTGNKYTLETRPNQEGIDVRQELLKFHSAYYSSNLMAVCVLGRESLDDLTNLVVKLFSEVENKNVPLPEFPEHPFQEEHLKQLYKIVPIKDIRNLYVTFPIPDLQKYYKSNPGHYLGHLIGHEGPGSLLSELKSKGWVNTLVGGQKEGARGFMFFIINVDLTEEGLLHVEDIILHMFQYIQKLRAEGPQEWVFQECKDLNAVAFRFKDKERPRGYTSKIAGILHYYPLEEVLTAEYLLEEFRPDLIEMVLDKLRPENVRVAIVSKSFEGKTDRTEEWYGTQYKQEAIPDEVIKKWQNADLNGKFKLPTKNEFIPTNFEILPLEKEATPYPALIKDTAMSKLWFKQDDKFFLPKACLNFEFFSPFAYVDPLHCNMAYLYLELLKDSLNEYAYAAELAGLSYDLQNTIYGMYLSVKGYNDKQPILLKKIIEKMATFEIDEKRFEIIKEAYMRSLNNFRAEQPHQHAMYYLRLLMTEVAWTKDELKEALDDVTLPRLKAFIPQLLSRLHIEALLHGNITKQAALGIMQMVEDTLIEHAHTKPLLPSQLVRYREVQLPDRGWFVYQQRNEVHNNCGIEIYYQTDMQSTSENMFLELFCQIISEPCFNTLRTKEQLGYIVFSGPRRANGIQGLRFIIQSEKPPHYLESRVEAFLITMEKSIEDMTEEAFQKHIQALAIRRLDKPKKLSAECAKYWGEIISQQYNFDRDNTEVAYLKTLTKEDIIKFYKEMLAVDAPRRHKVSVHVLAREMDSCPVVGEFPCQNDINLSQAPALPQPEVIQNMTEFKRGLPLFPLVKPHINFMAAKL

HEK293 [2] = experiment: HEK cell cytotoxicity by LDH release, dose response, cytotoxicity control for IDE activator project, fluorescence, HEK cells (AID 588440); type: functional, cell-based, Homo sapiens; conditions: Homo sapiens, HEK293;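 further: cytotoxicity by LDH release measuring loss of membrane integrity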
Insulin-degrading enzyme [3] = target: T1, Insulin-degrading enzyme; experiment: activators of endogenous IDE in HEK cells, dose response, cell-based, fluorescence polarization (AID 588439); type: functional
HEK293 [4] = experiment: optical interference in Abeta FP readout, dose response, artefact control for IDE activator project, biochemical, fluorescence polarization (AID 588442); type: functional, cell-based; conditions: Homo sapiens
Vero [5] = experiment: Vero cell cytotoxicity, cytotoxicity control for flavivirus capping enzyme inhibitors (AID 588742); type: functional; conditions: Chlorocebus sabaeus
Vero [6] = experiment: cells; type: functional; conditions: Chlorocebus sabaeus
Vero [7] = experiment: cells; type: functional, cell-based; conditions: Chlorocebus sabaeus
[8] = target: Glucose-6-phosphate 1-dehydrogenase (Homo sapiens, UniProt P11413); experiment: human G6PD enzyme inhibitors, dose response, selectivity assay for P. falciparum G6PD inhibitor project, biochemical, fluorescence (AID 504792); type: functional
Exodeoxyribonuclease V = target: T2, Exodeoxyribonuclease V (Escherichia coli (strain K12), UniProt P04993+P07648+P08394); experiment: E. coli RecBCD inhibitors, dose response, counter-screen for AddAB inhibitor project, absorbance, V66 E. coli, mutant T4 phage (AID 492957); type: functional, cell-based, Escherichia coli str. K-12 substr. MG1655
T2 sequence (P04993 whole entry): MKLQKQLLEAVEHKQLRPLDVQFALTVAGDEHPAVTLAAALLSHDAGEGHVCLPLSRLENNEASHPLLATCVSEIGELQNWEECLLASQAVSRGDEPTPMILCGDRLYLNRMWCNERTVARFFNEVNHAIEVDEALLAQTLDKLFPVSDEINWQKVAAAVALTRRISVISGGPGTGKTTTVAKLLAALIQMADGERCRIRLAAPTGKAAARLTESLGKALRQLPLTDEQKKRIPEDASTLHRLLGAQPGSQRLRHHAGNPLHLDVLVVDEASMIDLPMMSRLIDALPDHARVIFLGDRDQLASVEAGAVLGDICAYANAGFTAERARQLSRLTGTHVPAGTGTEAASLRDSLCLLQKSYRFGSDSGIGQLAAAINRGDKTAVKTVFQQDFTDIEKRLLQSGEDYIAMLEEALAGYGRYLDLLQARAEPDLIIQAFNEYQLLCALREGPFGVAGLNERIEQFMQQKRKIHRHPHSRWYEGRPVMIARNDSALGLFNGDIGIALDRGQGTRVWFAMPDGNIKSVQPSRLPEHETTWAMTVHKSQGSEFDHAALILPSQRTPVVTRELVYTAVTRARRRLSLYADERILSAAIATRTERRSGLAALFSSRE
T2 sequence (P07648 whole entry): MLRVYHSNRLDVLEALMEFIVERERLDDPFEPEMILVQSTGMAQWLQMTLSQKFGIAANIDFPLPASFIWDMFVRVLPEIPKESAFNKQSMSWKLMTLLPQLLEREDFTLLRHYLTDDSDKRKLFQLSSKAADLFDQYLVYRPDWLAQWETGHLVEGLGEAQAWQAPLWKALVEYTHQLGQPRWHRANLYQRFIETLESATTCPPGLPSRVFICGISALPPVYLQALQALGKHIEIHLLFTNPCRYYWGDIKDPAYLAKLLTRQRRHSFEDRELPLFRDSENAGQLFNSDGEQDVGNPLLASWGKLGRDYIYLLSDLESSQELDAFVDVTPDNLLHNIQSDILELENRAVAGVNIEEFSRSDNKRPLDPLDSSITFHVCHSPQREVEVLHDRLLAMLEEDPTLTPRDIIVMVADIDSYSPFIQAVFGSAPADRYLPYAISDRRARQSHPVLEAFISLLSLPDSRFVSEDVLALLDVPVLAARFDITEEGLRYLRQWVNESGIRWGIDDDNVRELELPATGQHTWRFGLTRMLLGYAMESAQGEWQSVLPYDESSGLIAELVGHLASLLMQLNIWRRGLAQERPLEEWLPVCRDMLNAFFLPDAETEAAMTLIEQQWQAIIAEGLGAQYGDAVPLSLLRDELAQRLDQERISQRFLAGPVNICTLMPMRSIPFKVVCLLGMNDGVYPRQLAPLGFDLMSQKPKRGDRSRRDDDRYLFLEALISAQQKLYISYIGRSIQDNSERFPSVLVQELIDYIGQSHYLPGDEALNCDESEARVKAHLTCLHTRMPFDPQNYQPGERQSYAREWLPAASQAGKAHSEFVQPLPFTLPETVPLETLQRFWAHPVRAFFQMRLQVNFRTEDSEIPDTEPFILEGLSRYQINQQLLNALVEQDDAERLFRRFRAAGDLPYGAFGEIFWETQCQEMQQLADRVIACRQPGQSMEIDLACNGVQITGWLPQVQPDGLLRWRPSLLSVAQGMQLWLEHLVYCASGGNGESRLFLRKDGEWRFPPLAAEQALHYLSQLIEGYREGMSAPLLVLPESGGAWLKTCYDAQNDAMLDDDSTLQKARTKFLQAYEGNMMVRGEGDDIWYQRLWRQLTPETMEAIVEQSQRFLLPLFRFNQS
T2 sequence (P08394 whole entry): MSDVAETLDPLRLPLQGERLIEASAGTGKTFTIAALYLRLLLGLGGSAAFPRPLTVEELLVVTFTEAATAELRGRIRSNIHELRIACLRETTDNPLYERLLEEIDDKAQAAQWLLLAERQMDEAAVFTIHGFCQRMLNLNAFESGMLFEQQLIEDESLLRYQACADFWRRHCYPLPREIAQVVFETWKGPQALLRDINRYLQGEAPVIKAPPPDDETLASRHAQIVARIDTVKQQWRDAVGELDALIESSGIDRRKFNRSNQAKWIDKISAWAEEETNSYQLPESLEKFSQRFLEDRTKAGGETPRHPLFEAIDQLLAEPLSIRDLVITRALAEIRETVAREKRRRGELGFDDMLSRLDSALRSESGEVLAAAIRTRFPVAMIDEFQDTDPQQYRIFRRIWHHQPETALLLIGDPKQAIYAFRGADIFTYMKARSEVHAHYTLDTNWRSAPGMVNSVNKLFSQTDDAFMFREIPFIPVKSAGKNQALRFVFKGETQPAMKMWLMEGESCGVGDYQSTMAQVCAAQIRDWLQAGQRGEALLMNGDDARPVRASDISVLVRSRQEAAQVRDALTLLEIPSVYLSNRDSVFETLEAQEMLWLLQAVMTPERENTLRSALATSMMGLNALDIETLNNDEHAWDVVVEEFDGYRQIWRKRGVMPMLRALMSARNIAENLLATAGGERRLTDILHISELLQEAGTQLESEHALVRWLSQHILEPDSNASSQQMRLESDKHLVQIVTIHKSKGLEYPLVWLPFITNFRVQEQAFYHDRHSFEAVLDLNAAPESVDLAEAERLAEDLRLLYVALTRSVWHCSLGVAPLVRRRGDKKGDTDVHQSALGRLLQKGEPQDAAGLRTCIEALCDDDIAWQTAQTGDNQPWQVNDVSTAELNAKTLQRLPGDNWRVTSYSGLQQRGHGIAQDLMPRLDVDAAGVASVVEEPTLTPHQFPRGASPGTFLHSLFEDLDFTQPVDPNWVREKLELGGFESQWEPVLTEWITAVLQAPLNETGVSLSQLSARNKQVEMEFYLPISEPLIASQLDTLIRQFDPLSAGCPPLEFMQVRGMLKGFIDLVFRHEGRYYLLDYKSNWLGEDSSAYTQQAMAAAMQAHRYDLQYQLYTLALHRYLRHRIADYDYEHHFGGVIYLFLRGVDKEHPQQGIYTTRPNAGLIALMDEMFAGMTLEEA

[9] = Counterscreen for AddAB inhibitors: absorbance-based bacterial cell-based high throughput dose response assay for inhibitors of bacterial viability. [Related pubchem assays (depositor defined):AID435030, AID449728, AID449731, AID488942, AID488955, AID488956]; type: functional
[10] = HEp-2 cell cytotoxicity, dose response, cytotoxicity control for RSV inhibitor project, HTS (AID 2410); type: functional; conditions: human respiratory syncytial virus
[11] = target: T3, Heat shock factor protein 1 (Mus musculus, UniProt P38532); experiment: inhibition of MG132-induced HSE-luciferase signal, confirmation, cell-based, NIH3T3, luminescence, dose retest (AID 2382); type: functional;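 further: NIH3T3 fibroblasts with HSF1-driven luciferase reporter stressed by proteasome inhibitor MG132; luminescence from HSF1-driven luciferase expression after 8 hours of MG132 stress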
T3 sequence (P38532 whole entry): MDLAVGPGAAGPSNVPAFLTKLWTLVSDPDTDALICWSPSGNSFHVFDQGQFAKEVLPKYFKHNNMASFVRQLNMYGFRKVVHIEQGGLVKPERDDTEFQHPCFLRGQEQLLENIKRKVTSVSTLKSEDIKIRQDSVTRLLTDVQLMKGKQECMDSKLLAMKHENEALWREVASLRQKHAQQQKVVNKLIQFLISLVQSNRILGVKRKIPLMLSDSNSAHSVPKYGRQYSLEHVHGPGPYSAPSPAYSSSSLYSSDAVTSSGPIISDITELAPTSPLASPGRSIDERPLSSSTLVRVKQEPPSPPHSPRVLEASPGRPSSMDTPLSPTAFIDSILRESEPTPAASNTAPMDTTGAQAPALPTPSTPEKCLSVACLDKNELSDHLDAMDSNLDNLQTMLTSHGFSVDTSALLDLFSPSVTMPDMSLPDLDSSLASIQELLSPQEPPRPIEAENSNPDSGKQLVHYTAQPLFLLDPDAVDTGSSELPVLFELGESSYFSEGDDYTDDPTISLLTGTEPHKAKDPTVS

[12] = target: T4, Kappa-type opioid receptor (Homo sapiens, UniProt P41145); type: functional
Nonstructural protein 1 = Nonstructural protein 1 (Influenza A virus, UniProt Q194T2); type: functional, Influenza A virus (A/California/07/2009(H1N1))
[13] = target: T4, Kappa-type opioid receptor; type: functional; remark: listed apart in the source
Beta-galactosidase = Beta-galactosidase (Escherichia coli, UniProt Q8VNN2); type: functional
Beta-galactosidase, sequence (Q8VNN2 whole entry): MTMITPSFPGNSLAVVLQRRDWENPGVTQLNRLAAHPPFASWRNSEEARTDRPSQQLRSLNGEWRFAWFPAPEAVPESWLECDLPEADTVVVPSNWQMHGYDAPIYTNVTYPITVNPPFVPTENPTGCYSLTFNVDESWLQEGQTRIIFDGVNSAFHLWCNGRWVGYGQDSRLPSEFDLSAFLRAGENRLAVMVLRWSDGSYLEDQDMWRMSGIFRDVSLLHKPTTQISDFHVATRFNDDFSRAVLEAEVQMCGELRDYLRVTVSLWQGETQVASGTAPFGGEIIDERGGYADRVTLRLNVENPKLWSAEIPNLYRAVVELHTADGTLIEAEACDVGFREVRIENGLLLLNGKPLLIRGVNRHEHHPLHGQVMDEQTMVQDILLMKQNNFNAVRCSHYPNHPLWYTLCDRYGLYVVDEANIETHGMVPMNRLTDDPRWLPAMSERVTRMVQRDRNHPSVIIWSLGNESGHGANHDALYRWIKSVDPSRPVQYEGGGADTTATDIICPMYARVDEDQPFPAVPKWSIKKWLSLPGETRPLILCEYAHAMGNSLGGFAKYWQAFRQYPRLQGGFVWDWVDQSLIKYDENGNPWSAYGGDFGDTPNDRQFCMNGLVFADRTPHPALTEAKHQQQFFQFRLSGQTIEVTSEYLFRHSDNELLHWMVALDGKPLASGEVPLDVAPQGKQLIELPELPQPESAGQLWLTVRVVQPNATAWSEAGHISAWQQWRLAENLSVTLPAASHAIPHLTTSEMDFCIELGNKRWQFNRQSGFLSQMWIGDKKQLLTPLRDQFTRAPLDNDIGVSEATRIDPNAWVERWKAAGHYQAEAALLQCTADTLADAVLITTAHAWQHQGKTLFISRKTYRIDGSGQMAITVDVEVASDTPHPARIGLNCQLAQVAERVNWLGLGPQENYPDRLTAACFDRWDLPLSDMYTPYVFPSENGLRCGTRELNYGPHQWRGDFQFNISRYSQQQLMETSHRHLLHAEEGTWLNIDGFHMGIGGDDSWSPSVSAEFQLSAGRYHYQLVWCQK

Cytochrome P450 2C9, sequence (P11712 whole entry): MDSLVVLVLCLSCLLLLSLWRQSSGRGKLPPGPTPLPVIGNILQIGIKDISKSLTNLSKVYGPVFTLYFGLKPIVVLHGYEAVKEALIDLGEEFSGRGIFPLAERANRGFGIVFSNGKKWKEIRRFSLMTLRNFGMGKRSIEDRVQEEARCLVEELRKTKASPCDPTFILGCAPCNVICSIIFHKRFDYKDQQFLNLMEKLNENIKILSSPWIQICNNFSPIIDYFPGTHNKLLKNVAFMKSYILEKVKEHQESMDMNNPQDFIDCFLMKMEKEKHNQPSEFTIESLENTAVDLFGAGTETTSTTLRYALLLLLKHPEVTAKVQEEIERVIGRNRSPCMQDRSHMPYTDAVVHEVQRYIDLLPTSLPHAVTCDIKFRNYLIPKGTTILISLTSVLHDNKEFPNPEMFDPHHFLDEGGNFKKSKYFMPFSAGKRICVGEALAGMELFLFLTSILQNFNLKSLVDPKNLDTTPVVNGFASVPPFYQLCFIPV
T4 sequence (P41145 whole entry): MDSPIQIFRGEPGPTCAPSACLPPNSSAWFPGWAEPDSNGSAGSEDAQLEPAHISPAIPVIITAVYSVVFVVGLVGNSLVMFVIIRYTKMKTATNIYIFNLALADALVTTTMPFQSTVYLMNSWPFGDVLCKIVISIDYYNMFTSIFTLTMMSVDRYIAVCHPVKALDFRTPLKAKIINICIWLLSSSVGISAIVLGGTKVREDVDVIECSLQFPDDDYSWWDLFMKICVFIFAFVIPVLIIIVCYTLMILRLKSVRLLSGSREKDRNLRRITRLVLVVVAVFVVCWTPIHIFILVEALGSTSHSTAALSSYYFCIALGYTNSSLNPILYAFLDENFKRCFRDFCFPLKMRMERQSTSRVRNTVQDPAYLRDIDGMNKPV
Cytochrome P450 2D6, sequence (P10635 whole entry): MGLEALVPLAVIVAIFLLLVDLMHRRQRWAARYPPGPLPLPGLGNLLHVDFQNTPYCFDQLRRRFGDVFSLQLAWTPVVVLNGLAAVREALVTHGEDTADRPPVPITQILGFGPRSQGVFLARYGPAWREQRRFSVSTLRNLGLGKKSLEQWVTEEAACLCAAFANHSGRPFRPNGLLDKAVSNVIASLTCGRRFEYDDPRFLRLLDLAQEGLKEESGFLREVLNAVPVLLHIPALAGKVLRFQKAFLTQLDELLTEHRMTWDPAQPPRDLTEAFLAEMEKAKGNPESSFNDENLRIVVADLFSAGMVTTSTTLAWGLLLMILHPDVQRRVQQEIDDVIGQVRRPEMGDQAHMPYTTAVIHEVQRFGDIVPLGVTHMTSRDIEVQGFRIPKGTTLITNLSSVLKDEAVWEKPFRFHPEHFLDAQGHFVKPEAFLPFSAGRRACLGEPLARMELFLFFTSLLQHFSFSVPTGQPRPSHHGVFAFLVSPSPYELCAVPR
Glucose-6-phosphate 1-dehydrogenase, sequence (P11413 whole entry): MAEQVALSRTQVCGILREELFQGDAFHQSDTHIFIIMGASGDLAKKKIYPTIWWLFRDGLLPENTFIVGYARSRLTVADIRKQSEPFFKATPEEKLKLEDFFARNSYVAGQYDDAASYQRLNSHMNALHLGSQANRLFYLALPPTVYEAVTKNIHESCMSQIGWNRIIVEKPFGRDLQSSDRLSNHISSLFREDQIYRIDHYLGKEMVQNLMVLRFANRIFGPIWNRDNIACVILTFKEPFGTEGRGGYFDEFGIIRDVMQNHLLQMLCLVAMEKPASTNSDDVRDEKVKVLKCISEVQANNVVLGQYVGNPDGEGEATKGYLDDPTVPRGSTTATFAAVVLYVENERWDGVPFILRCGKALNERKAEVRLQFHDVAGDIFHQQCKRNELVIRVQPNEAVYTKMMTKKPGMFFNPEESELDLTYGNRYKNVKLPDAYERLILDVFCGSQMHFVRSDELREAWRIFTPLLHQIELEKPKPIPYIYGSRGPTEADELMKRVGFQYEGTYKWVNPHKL
Nonstructural protein 1, sequence (Q194T2 whole entry): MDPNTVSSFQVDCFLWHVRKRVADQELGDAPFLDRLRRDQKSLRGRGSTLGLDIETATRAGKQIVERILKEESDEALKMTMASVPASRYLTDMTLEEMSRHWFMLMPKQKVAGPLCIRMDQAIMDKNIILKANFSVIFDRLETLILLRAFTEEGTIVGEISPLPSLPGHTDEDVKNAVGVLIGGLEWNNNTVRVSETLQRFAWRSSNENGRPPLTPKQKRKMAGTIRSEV

With CCN1C(=O)/C(=C2\SC(N3CCCCC3)=NC2=O)c2ccccc21 the AC50 (Cytochrome P450 2C9) was “inconclusive” and the AC50 (Cytochrome P450 2D6) was 3.16 µM (inconclusive).

For CN(Cc1nnc(S)n1C)S(=O)(=O)c1ccccc1, the AC50 (Cytochrome P450 2C9) was “inconclusive”.

In the case of O=C1Nc2ccccc2C2=NC(CN3CCN(c4cccc(Cl)c4)CC3)CN12 (stereo not given), the AC50 (Cytochrome P450 2C9) is reported as “inconclusive”.

In the case of CCn1c(=O)c([N+](=O)[O-])c(NCc2ccc3c(c2)OCO3)c2ccccc21, the EC50 (Insulin-degrading enzyme [1]) is reported as > 54.7 µM (inactive), the IC50 (HEK293 [2]) is reported as > 89.2 µM (inactive) and the EC50 (Insulin-degrading enzyme [3]) is reported as > 54.7 µM (inactive). The EC50 (HEK293 [4]) was > 55.9 µM (inactive).

For CN=c1ccc(Br)cc(C(=O)/C=C/c2cccc(Cl)c2Cl)c1O, the CC50 (Vero [5]) was 18 µM (active), the CC50 (Vero [6]) was 9.23 µM (active) and the IC50 (Vero [7]) was > 25 µM (active).

With CC(=O)Nc1cc([N+](=O)[O-])ccc1OCc1ccccc1 the IC50 [8] was > 80 µM (inactive).

For O=C(O)CC1SC(N/N=C/c2ccccn2)=NC1=O (stereo not given), the IC50 (Exodeoxyribonuclease V) was > 118 µM (inactive) and the IC50 [9] was > 118 µM (inactive).

In the case of O=C(O)c1cc(-c2ccc3ccccc3c2)nc2ccc(F)cc12, the CC50 [10] is reported as 12.1 µM (active), the IC50 (cells) is reported as 19.2 µM (active) and the IC50 (Vero [7]) is reported as > 25 µM (active).

With O=C(CSC1=NNC(c2ccccn2)S1)Nc1ccccc1 (stereo not given) the EC50 [11] was 3.04 µM (active), the IC50 (Exodeoxyribonuclease V) was > 118 µM (inactive) and the IC50 [12] was over 32 µM. The IC50 (Nonstructural protein 1) was 0.986 µM (active), the IC50 [13] was > 31.5 µM (inactive) and the EC50 (Beta-galactosidase) was > 31.5 µM (inactive). The IC50 [9] was > 118 µM (inactive).

With CSc1nc(Cl)cc(N(CCO)CCO)n1 the AC50 (Cytochrome P450 2C9) was “inconclusive”.
